Measurements as given in PMC2248166, “Quantitative peptide binding motifs for 19 human and mouse MHC class I molecules derived using positional scanning combinatorial peptide libraries” (Immunome Research, 2008).

What was measured:
Type in all cases: binding
HLA A*3001 = HLA A*3001 (Homo sapiens, UniProt P04439, D140H/D185E/E176W/F33S/G80R/H175R/K168Q/R138E/R41S); test: biochemical
HLA A*3201 = HLA A*3201 (Homo sapiens, UniProt P04439, A270S/D101S/D185E/E176V/E277Q/F133L/G103R/G107R/G231S/H175R/I121M/I218V/I322F/K168Q/L105A/L300P/L318F/M331R/P208A/P217A/Q94H/R106L/R138Q/S129P/T104I/T323A/T345S/V100E/V321M/V358M); test: biochemical
HLA A*6802 = HLA A*6802 (Homo sapiens, UniProt P04439, A269V/D140Y/D185E/E176V/E277Q/E87N/F33Y/G231S/I121R/I166T/I218V/L180W/L300P/L318F/N151K/P208A/P217A/Q86R/R138H/R169H/S129P/T345S/V36M)
HLA B*0801 = HLA B*0801 (Homo sapiens, UniProt P01889, A93T/A95T/D138N/E176V/E187T/K202T/Q94N/R180D/S35A/V36M/Y33D/Y91F); test: biochemical
HLA B*1501 = HLA B*1501 (Homo sapiens, UniProt P01889, A329T/A93T/A95T/C349S/D201E/D98Y/E187L/E204Q/E69M/E70A/K202T/N87E/Q94N/R155S/R180W/S121R/S35A/S48A/V306I/V36M/Y140S/Y91S); test: biochemical
HLA B*1503 = HLA B*1503 (Homo sapiens, UniProt P01889, A329T/A93T/A95T/C349S/D201E/D98Y/E187L/E204Q/K202T/N87E/Q94N/R155S/R180L/S121R/S35A/V306I/V36M/Y140S/Y91S); test: biochemical
HLA B*3501 = HLA B*3501 (Homo sapiens, UniProt P01889, A329T/A93T/A95T/C349S/D201E/D98Y/E176V/E187L/E204Q/E69T/I218V/K202T/L119I/Q94N/R155S/R180L/S121R/S35A/S48A/T118I/V127L/V306I/V36M/Y140S/Y91F)
HLA B*5101 = HLA B*5101 (Homo sapiens, UniProt P01889, A329T/A93T/A95T/C349S/D138N/D201E/D98Y/E187L/E204Q/E69T/G107R/I218V/K202T/L105A/L119W/N104I/Q94N/R106L/R155S/R180L/S101N/S121T/S35A/S48A/V306I/V36M/Y195H/Y91F)
HLA B*5301 = HLA B*5301 (Homo sapiens, UniProt P01889, A329T/A93T/A95T/C349S/D201E/D98Y/E176V/E187L/E204Q/E69T/G107R/I218V/K202T/L105A/L119I/N104I/Q94N/R106L/R155S/R180L/S101N/S121R/S35A/S48A/T118I/V127L/V306I/V36M/Y140S/Y91F)
HLA B*5401 = HLA B*5401 (Homo sapiens, UniProt P01889, A329T/C349S/D138N/D201E/E176V/E187T/E204Q/E69G/I76V/K202T/L119W/R155S/R180L/S121T/S35A/S48A/V127L/V306I/V36M/Y140L)
HLA B*5801 = HLA B*5801 (Homo sapiens, UniProt P01889, A329T/C349S/D201E/D98Y/E176V/E187L/E204Q/E69T/G107R/I218V/I90N/K202T/L105A/L119I/N104I/N87E/Q89R/Q94S/R106L/R155S/R180L/R86G/S101N/S121R/S35A/S48A/T118I/V127L/V306I/V36M/Y140S/Y91M)
HLA B*5802 = HLA B*5802 (Homo sapiens, UniProt P01889, A329T/C349S/D201E/D98Y/E176V/E187L/E204Q/E69T/G107R/I218V/I90N/K202T/L105A/N104I/N87E/Q89R/Q94S/R106L/R155S/R180L/R86G/S101N/S121W/S35A/S48A/V127L/V306I/V36M/Y140S/Y91M)
H-2 D^b = H-2 D^b (Mus musculus, UniProt P01899)
H-2 D^d = H-2 D^d (Mus musculus, UniProt P01900)
H-2 K^d = H-2 K^d (Mus musculus, UniProt P01902)
H-2 K^k = H-2 K^k (Mus musculus, UniProt P04223)
H-2 K^k, sequence (P01887 21-119): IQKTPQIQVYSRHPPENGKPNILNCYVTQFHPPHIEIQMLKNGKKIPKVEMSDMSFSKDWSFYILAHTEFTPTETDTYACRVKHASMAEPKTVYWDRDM
H-2 K^k, sequence (P04223 22-369): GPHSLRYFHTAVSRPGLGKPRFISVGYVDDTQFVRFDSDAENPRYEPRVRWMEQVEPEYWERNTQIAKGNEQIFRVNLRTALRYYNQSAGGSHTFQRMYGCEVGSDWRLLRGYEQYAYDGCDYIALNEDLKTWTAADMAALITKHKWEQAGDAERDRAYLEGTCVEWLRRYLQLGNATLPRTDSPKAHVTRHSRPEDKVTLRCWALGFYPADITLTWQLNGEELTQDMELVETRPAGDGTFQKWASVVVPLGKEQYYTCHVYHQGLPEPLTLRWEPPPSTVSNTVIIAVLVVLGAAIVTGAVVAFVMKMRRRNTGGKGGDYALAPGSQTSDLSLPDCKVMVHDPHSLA

H-2 D^b, sequence (P01887 21-119): as the sequence (P01887 21-119) above
H-2 D^b, sequence (P01899 25-362): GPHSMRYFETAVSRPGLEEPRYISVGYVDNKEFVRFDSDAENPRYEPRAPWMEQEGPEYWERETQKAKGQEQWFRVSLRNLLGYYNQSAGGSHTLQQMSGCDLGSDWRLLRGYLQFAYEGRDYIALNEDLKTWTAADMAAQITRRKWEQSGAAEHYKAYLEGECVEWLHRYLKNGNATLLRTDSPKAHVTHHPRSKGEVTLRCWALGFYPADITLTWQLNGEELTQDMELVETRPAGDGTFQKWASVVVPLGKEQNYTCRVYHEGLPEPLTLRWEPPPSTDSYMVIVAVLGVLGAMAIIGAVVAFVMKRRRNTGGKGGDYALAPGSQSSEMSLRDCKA
H-2 K^d, sequence (P01887 21-119): as the sequence (P01887 21-119) above
H-2 K^d, sequence (P01902 22-368): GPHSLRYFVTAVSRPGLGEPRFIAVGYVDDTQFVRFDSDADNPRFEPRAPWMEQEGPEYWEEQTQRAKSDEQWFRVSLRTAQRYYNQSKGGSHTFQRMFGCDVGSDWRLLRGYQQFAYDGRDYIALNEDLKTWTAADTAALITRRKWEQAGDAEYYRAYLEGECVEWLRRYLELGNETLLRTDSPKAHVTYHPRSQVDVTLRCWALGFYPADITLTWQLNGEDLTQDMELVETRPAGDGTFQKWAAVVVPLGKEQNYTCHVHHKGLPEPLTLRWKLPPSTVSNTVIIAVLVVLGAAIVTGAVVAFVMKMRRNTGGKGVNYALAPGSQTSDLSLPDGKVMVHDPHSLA
H-2 D^d, sequence (P01900 whole entry, looked up): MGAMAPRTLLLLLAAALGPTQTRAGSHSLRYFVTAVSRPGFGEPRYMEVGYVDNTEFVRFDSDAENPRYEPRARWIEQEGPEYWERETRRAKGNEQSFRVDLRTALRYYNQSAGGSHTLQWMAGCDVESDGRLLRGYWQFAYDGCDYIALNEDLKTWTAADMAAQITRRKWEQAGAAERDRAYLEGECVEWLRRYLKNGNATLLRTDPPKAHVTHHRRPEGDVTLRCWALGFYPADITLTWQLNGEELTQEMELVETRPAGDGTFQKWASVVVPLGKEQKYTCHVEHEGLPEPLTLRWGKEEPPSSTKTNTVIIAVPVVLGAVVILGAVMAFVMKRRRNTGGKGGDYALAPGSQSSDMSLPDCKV

Sequence | Normalized average relative binding affinity(ARB) (HLA A*3001) | Normalized average relative binding affinity(ARB) (HLA A*3201) | Normalized average relative binding affinity(ARB) (HLA A*6802) | Normalized average relative binding affinity(ARB) (HLA B*0801) | Normalized average relative binding affinity(ARB) (HLA B*1501) | Normalized average relative binding affinity(ARB) (HLA B*1503) | Normalized average relative binding affinity(ARB) (HLA B*3501) | Normalized average relative binding affinity(ARB) (HLA B*5101) | Normalized average relative binding affinity(ARB) (HLA B*5301) | Normalized average relative binding affinity(ARB) (HLA B*5401) | Normalized average relative binding affinity(ARB) (HLA B*5801) | Normalized average relative binding affinity(ARB) (HLA B*5802) | Normalized average relative binding affinity(ARB) (H-2 D^b) | Normalized average relative binding affinity(ARB) (H-2 D^d) | Normalized average relative binding affinity(ARB) (H-2 K^d) | Normalized average relative binding affinity(ARB) (H-2 K^k)
XXXXXXFXX [3064.0125] | 0.18 | 0.44 | 0.46 | 0.40 | 0.34 | 0.077 | 0.32 | 0.43 | 0.10 | 0.17 | 0.018 | 0.084 | 0.72 | 1.0 | 0.088 | 1.0
XXXXXQXXX [3064.0114] | 0.21 | 0.15 | 0.085 | 0.031 | 0.21 | 0.53 | 0.12 | 0.39 | 0.13 | 0.11 | 0.57 | 0.46 | 0.55 | 0.51 | 0.19 | 0.12
XXXKXXXXX [3064.0069] | 0.32 | 0.39 | 0.095 | 0.52 | 0.43 | 0.30 | 0.097 | 0.90 | 0.12 | 0.42 | 0.44 | 0.55 | 0.43 | 0.39 | 0.23 | 0.26
XXXXXXXSX [3064.0156] | 0.23 | 1.0 | 0.27 | 1.0 | 0.34 | 1.0 | 0.20 | 0.44 | 0.11 | 1.0 | 0.31 | 0.30 | 0.13 | 1.0 | 0.61 | 0.48
XXXXRXXXX [3064.0095] | 0.80 | 0.27 | 0.19 | 1.0 | 0.64 | 0.28 | 0.23 | 0.49 | 0.11 | 0.21 | 0.15 | 0.20 | 0.020 | 1.0 | 0.023 | 0.072
XXXXXXXRX [3064.0155] | 0.35 | 0.26 | 0.13 | 0.30 | 0.15 | 0.11 | 0.072 | 0.36 | 0.46 | 0.059 | 0.13 | 0.37 | 0.068 | 0.46 | 0.49 | 0.10
